Reference: patent US6500853B1, “Inhibitors of phospholipase enzymes” (Genetics Institute, LLC, priority 1998, dated 2002)
Where two headings read alike, the source gives them in different places.

Molecular target: T1, cPLA2 (Homo sapiens, UniProt P47712)
T1 sequence (P47712 1-749): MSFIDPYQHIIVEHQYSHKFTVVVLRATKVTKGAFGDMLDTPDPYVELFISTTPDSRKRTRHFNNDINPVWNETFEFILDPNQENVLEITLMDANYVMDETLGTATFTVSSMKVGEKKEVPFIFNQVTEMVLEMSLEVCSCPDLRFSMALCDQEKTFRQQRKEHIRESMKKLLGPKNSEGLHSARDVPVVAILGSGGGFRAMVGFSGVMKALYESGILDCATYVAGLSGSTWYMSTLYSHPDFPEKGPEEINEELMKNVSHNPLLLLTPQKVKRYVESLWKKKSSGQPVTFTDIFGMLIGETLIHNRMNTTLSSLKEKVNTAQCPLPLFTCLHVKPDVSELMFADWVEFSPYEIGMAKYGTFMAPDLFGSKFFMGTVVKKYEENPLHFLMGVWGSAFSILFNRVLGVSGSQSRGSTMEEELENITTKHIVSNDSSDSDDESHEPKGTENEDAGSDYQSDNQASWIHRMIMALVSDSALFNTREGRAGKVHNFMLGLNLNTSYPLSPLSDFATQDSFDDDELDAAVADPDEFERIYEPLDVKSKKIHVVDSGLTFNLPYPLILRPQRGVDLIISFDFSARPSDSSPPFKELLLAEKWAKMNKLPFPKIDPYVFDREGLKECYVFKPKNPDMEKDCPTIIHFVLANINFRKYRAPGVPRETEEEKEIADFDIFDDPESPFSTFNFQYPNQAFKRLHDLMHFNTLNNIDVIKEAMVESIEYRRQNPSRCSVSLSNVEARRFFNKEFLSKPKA
Assay: Coumarin Assay (cPLA2 inhibition)
Assay type: biochemical
Conditions: for inhibition at 10 µM: CONCENTRATION 10 micromolar; for inhibition at 11 µM: CONCENTRATION 11 micromolar; for inhibition at 20 µM: CONCENTRATION 20 micromolar; for inhibition at 12.5 µM: CONCENTRATION 12.5 micromolar; for inhibition at 7 µM: CONCENTRATION 7 micromolar; for inhibition at 12 µM: CONCENTRATION 12 micromolar
Procedure: Table I reports data for the compounds described in the examples above in cPLA2 inhibition assays (described below). In the data columns of Tables I and II, assay results are reported as a percent inhibition at the concentration specified.
7-hydroxycoumarinyl 6-heptenoate was used as a monomeric substrate for cPLA2 as reported previously (Huang, Z. et al., 1994, Nalytical Biochemistry 222, 110-115). Inhibitors were mixed with 200 μL assay buffer (80 mM Heped, pH 7.5, 1 mM EDTA) containing 60 μM 7-hydroxycoumarinyl 6-heptenoate. The reaction was initiated by adding 4 μg cPLA2 in 50 μL assay buffer. Hydrolysis of the 7-hydroxycounarimyl 6-heptenoate ester was monitored in a fluorometer by exciting at 360 nm and monitoring emission at 460 nm. Enzyme activity is proportional to the increase in emission at 460 nm per minute. In the presence of a cPLA2 inhibitor, the rate of increase is less. The percent inhibition for corresponding concentrations of compounds herein in this Coumarin assay are provided below in Table I.

O=C(O)c1ccc(S(=O)(=O)CCc2c(CO)n(C(c3ccccc3)c3ccccc3)c3ccc(Cl)cc23)cc1 [Example 157, 4-({2-[1-benzhydryl-5-chloro-2-(hydroxymethyl)-1H-indol-3-yl]ethyl}sulfonyl)benzoic acid]
inhibition at 3.8 µM (Conc 3.8 uM, read-out: % Inhibition): 50%

COc1cc(C(=O)NS(=O)(=O)c2ccccc2C)ccc1Cc1cn(Cc2ccncc2)c2ccc(NC(=O)OC3CCCC3)cc12 [Example 22, Cyclopentyl N-[3-[2-methoxy-4-({[(2-methylphenyl)sulfonyl]amino}carbonyl)benzyl]-1-(4-pyridinylmethyl)-1H-indol-5-yl]carbamate]
inhibition at 38 µM (CONCENTRATION 38 micromolar, read-out: PERCENT INHIBITION @): 50%
inhibition at 40 µM (CONCENTRATION 40 micromolar, read-out: PERCENT INHIBITION @): 50%

O=C(O)CN1C(=O)S/C(=C/c2cn(CCCOc3cccc(Cc4ccccc4)c3)c3ccccc23)C1=O [Example 82C, 2-[5-((E)-{1-[3-(3-benzylphenoxy)propyl]-1H-indol-3-yl}methylidene)-2,4-dioxo-1,3-thiazolan-3-yl]acetic acid]
inhibition at 8 µM (CONCENTRATION 8 micromolar, read-out: PERCENT INHIBITION @): 50%
inhibition at 10 µM (read-out: PERCENT INHIBITION @): 50%

O=C(O)CCC(=O)Nc1ccc(Cc2cn(C(c3ccccc3)c3ccccc3)c3cc(Cl)ccc23)cc1 [Example 123, 4-{4-[(1-benzhydryl-6-chloro-1H-indol-3-yl)methyl]anilino}-4-oxobutanooic acid]
PERCENT INHIBITION @ (CONCENTRATION 1.2 micromolar): 50%

O=C(O)c1ccc(Cc2cn(C(c3ccccc3)c3ccccc3)c3cc(Cl)ccc23)c(OCCCO)c1 [Example 131, ′4-[(1-benzhydryl-6-chloro-1H-indol-3-yl)methyl]-3-(3-hydroxypropoxy)benzoic acid]
PERCENT INHIBITION @ (CONCENTRATION 0.6 micromolar): 50%

COc1cc(C(=O)NS(=O)(=O)Cc2ccccc2)ccc1Cc1cn(C(c2ccccc2)c2ccccc2)c2ccc(NC(=O)OC3CCCC3)cc12 [Example 31, cyclopentyl N-[1-benzhydryl-3-(4-{[(benzylsulfonyl)amino]carbonyl}-2-methoxybenzyl)-1H-indol-5-yl]carbamate]
inhibition at 11 µM (read-out: PERCENT INHIBITION @): 50%
inhibition at 18 µM (CONCENTRATION 18 micromolar, read-out: PERCENT INHIBITION @): 50%

COc1cc(Cc2cn(C(c3ccccc3)c3ccccc3)c3cc(Cl)ccc23)ccc1OCC(=O)O [Example 121, 2-{4-[(1-benzhydryl-6-chloro-1H-indol-3-yl)methyl]-2-methoxyphenoxy}acetic acid]
inhibition at 1.6 µM (CONCENTRATION 1.6 micromolar, read-out: PERCENT INHIBITION @): 20%

COc1cc(C(=O)NS(=O)(=O)c2ccc(N3N=C(C)CC3=O)cc2)ccc1Cc1cn(C(c2ccccc2)c2ccccc2)c2ccc(NC(=O)OC3CCCC3)cc12 [Example 35, cyclopentyl N-(1-benzhydryl-3-{2-methoxy-4[({[4-(3-methyl-5-oxo-4,5-dihydro-1H-pyrazol-1-yl)phenyl]sulfonyl}amino)carbonyl]benzyl}-1H-indol-5-yl)carbamate]
inhibition at 10 µM (read-out: PERCENT INHIBITION @): 23%
inhibition at 20 µM (read-out: PERCENT INHIBITION @): 42%
inhibition at 41 µM (CONCENTRATION 41 micromolar, read-out: PERCENT INHIBITION @): 50%

O=C(Nc1cc(C(=O)O)cc(C(=O)O)c1)C(=O)c1cn(Cc2ccc(C(F)(F)F)cc2C(F)(F)F)c2ccc(OCc3ccccc3)cc12 [Example 72, 5-[(2-{5-(benzyloxy)-1-[2,4-bis(trifluoromethyl)benzyl]-1H-indol-3-yl}-2-oxoacetyl)amino]isophthalic acid]
inhibition at 12.5 µM (read-out: PERCENT INHIBITION @): 50%

O=C(O)C(=O)Nc1ccc(Cc2cn(C(c3ccccc3)c3ccccc3)c3cc(Cl)ccc23)cc1 [Example 125, 2-{4-[(1-benzhydryl-6-chloro-1H-indol-3-yl)methyl]anilino}-2-oxoacetic acid]
inhibition at 0.8 µM (CONCENTRATION 0.8 micromolar, read-out: PERCENT INHIBITION @): 50%

O=C(Cc1cn(Cc2ccc(C(F)(F)F)cc2C(F)(F)F)c2ccc(OCc3ccccc3)cc12)Nc1cccc(C(=O)O)c1 [Example 106, 3-[(2-{5-(benzyloxy)-1-[2,4-bis(trifluoromethyl)benzyl]-1H-indol-3-yl}acetyl)amino]benzoic acid]
inhibition at 7 µM (read-out: PERCENT INHIBITION @): 50%
inhibition at 12 µM (read-out: PERCENT INHIBITION @): 50%

COc1cc(C(=O)NS(=O)(=O)c2ccccc2C)ccc1Cc1cn(Cc2ccc3ccccc3c2)c2ccc(NC(=O)OC3CCCC3)cc12 [Example 23, Cyclopentyl N-[3-[2-methoxy-4-({[(2-methylphenyl)sulfonyl]amino}carbonyl)benzyl]-1-(2-naphthylmethyl)-1H-indol-5-yl]carbamate]
inhibition at 10 µM (read-out: PERCENT INHIBITION @): 50%
inhibition at 20 µM (read-out: PERCENT INHIBITION @): 58%

COCc1c(CCOc2ccc(C(=O)O)cc2)c2cc(Cl)ccc2n1C(c1ccccc1)c1ccccc1 [Example 152, 4-{2-[1-benzhydryl-5-chloro-2-(methoxymethyl)-1H-indol-3-yl]ethoxy}benzoic acid]
inhibition at 3.3 µM (Conc 3.3 uM): 50%

Cc1c(CCOc2ccc(C(=O)O)cc2)c2cc(Cl)ccc2n1C(c1ccccc1)c1ccccc1 [Example 149, 4-[2-(1-benzhydryl-5-chloro-2-methyl-1H-indol-3-yl)ethoxy]benzoic acid]
inhibition at 2.5 µM (Conc 2.5 uM, read-out: % Inhibition): 50%

COc1cc(C(=O)O)ccc1Cc1cn(C(c2ccccc2)c2ccccc2)c2cc(Cl)ccc12 [Example 137, ′4-[(1-benzhydryl-6-chloro-1H-indol-3-yl)methyl]-3-methoxybenzoic acid]
PERCENT INHIBITION @ (CONCENTRATION 0.8 micromolar): 50%

Cc1c(Cc2ccc(C(=O)O)cc2)c2cc(Cl)ccc2n1C(c1ccccc1)c1ccccc1 [Example 88, 4-[(1-benzhydryl-5-chloro-2-methyl-1H-indol-3-yl)methyl]benzoic acid]
PERCENT INHIBITION @ (CONCENTRATION 1.25 micromolar): 53%
inhibition at 1.25 µM (CONCENTRATION 1.25 micromolar, read-out: PERCENT INHIBITION @): 50%
inhibition at 1.32 µM (CONCENTRATION 1.32 micromolar, read-out: PERCENT INHIBITION @): 50%

O=C(Nc1cccc(C(=O)O)c1)C(=O)c1c(CSc2ccc3ccccc3c2)n(Cc2ccc(Cl)cc2)c2ccc(OCc3ccccc3)cc12 [Example 112, 3-[(2-{5-(benzyloxy)-1-(4-chlorobenzyl)-2-[(2-naphthylsulfanyl)methyl]-1H-indol-3-yl}-2-oxoacetyl)amino]benzoic acid]
inhibition at 2.5 µM (CONCENTRATION 2.5 micromolar, read-out: PERCENT INHIBITION @): 53%

O=C(Nc1cccc(C(=O)O)c1)C(=O)c1cn(CCCOc2ccc(Cc3ccccc3)cc2)c2ccccc12 [Example 62, 3-[(2-{1-[3-(4-benzylphenoxy)propyl]-1H-indol-3-yl}-2-oxoacetyl)amino]benzoic acid]
inhibition at 7 µM (read-out: PERCENT INHIBITION @): 50%
inhibition at 12.5 µM (read-out: PERCENT INHIBITION @): 86%

COc1cc(C(=O)NS(=O)(=O)c2ccccc2C)ccc1Cc1cn(C(c2ccccc2)c2ccccc2)c2ccc(NC(=O)OC3CCCC3)cc12 [Example 19, Cyclopentyl N-{1-benzhydryl-3-[2-methoxy-4-({[(2-methylphenyl)sulfonyl]amino}carbonyl)benzyl]-1H-indol-5-yl}carbamate]
inhibition at 2.2 µM (CONCENTRATION 2.2 micromolar, read-out: PERCENT INHIBITION @): 50%
inhibition at 4.2 µM (CONCENTRATION 4.2 micromolar, read-out: PERCENT INHIBITION @): 50%
inhibition at 5.8 µM (CONCENTRATION 5.8 micromolar, read-out: PERCENT INHIBITION @): 50%
inhibition at 6.25 µM (CONCENTRATION 6.25 micromolar, read-out: PERCENT INHIBITION @): 52%
inhibition at 7.8 µM (CONCENTRATION 7.8 micromolar, read-out: PERCENT INHIBITION @): 50%
inhibition at 9 µM (CONCENTRATION 9 micromolar, read-out: PERCENT INHIBITION @): 50%
inhibition at 11 µM (read-out: PERCENT INHIBITION @): 50%
inhibition at 12 µM (read-out: PERCENT INHIBITION @): 50%

CS(=O)(=O)Cc1c(CCOc2ccc(C(=O)O)cc2)c2cc(Cl)ccc2n1C(c1ccccc1)c1ccccc1 [Example 154, 4-(2-{1-benzhydryl-5-chloro-2-[(methylsulfonyl)methyl]-1H-indol-3-yl}ethoxy)benzoic acid]
inhibition at 5.5 µM (Conc 5.5 uM, read-out: % Inhibition): 50%
